According to the supplement of paper PMC10307832:

Legend:
Assay in all cases: relative viability (nuclei count vs DMSO), 5 days (fraction); higher = more cells survive
HCC-15 = test system: HCC-15
Outline: (§1)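 The day after seeding in 1536-well plates, lung cancer cell lines were treated by pin tool with a single drug, or with a fixed anchor-drug dose together with five library-drug doses (not always all listed) in √10 steps. After 5 days, a combined fix-and-stain solution (final 0.05% Triton X-100, 1% formaldehyde, 1 ug/ml Hoechst) was added. Nuclei counted on 4× images gave relative viability as treated counts over vehicle counts, reported as the median of duplicate plates.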

SW 1573 = test system: SW 1573
Outline: as §1

RERF-LC-KJ = test system: RERF-LC-KJ
Outline: as §1

COR-L23 = test system: COR-L23
Outline: as §1

LCLC-97TM1 = test system: LCLC-97TM1
Outline: as §1

NCI-H2009 = test system: NCI-H2009
Outline: as §1

LCLC-103H = test system: LCLC-103H
Outline: as §1

HARA = test system: HARA
Outline: as §1

201T = test system: 201T
Outline: as §1

NCI-H2023 = test system: NCI-H2023
Outline: as §1

NCI-H2126 = test system: NCI-H2126
Outline: as §1

LOU-NH91 = test system: LOU-NH91
Outline: as §1

NCI-H1993 = test system: NCI-H1993
Outline: as §1

NCI-H460 = test system: NCI-H460
Outline: as §1

A-427 = test system: A-427
Outline: as §1

HCC-366 = test system: HCC-366
Outline: as §1

HCC-78 = test system: HCC-78
Outline: as §1

ChaGo-K-1 = test system: ChaGo-K-1
Outline: as §1

NCI-H1734 = test system: NCI-H1734
Outline: as §1

NCI-H650 = test system: NCI-H650
Outline: as §1

NCI-H1650 = test system: NCI-H1650
Outline: as §1

HCC-44 = test system: HCC-44
Outline: as §1

NCI-H441 = test system: NCI-H441
Outline: as §1

O=C(O)CCCCC(CCSCc1ccccc1)SCc1ccccc1 (centres undefined) [CPI-613] + O=C(CCCCCCC(=O)Nc1ccccc1)NO [Vorinostat] (partner 1 µM)
relative viability (HCC-15; first compound 5 µM): 0.801
relative viability (HCC-15; first compound 15.81 µM): 0.774
relative viability (HCC-15; first compound 50 µM): 0.779
relative viability (HCC-15; first compound 158.11 µM): 0.181
relative viability (HCC-15; first compound 500 µM): 0.0657
relative viability (SW 1573; first compound 5 µM): 0.749
relative viability (SW 1573; first compound 15.81 µM): 0.635
relative viability (SW 1573; first compound 50 µM): 0.456
relative viability (SW 1573; first compound 158.11 µM): 0.165
relative viability (SW 1573; first compound 500 µM): 0.0536
relative viability (RERF-LC-KJ; first compound 5 µM): 0.607
relative viability (RERF-LC-KJ; first compound 15.81 µM): 0.53
relative viability (RERF-LC-KJ; first compound 50 µM): 0.631
relative viability (RERF-LC-KJ; first compound 158.11 µM): 0.415
relative viability (RERF-LC-KJ; first compound 500 µM): 0.344
relative viability (COR-L23; first compound 5 µM): 0.42
relative viability (COR-L23; first compound 15.81 µM): 0.387
relative viability (COR-L23; first compound 50 µM): 0.371
relative viability (COR-L23; first compound 158.11 µM): 0.125
relative viability (COR-L23; first compound 500 µM): 0.0123
relative viability (LCLC-97TM1; first compound 5 µM): 0.479
relative viability (LCLC-97TM1; first compound 15.81 µM): 0.492
relative viability (LCLC-97TM1; first compound 50 µM): 0.769
relative viability (LCLC-97TM1; first compound 158.11 µM): 0.331
relative viability (LCLC-97TM1; first compound 500 µM): 0.0868
relative viability (NCI-H2009; first compound 5 µM): 0.726
relative viability (NCI-H2009; first compound 15.81 µM): 0.672
relative viability (NCI-H2009; first compound 50 µM): 0.657
relative viability (NCI-H2009; first compound 158.11 µM): 0.152
relative viability (NCI-H2009; first compound 500 µM): 0.0308
relative viability (LCLC-103H; first compound 5 µM): 0.731
relative viability (LCLC-103H; first compound 15.81 µM): 0.662
relative viability (LCLC-103H; first compound 50 µM): 0.771
relative viability (LCLC-103H; first compound 158.11 µM): 0.683
relative viability (LCLC-103H; first compound 500 µM): 0.207
relative viability (HARA; first compound 5 µM): 0.479
relative viability (HARA; first compound 15.81 µM): 0.529
relative viability (HARA; first compound 50 µM): 0.506
relative viability (HARA; first compound 158.11 µM): 0.0931
relative viability (HARA; first compound 500 µM): 0.024
relative viability (201T; first compound 5 µM): 0.961
relative viability (201T; first compound 15.81 µM): 0.865
relative viability (201T; first compound 50 µM): 0.958
relative viability (201T; first compound 158.11 µM): 0.328
relative viability (201T; first compound 500 µM): 0.368
relative viability (NCI-H2023; first compound 5 µM): 0.537
relative viability (NCI-H2023; first compound 15.81 µM): 0.475
relative viability (NCI-H2023; first compound 50 µM): 0.572
relative viability (NCI-H2023; first compound 158.11 µM): 0.0274
relative viability (NCI-H2023; first compound 500 µM): 0.007
relative viability (NCI-H2126; first compound 5 µM): 0.743
relative viability (NCI-H2126; first compound 15.81 µM): 0.68
relative viability (NCI-H2126; first compound 50 µM): 0.831
relative viability (NCI-H2126; first compound 158.11 µM): 0.342
relative viability (NCI-H2126; first compound 500 µM): 0.179
relative viability (LOU-NH91; first compound 5 µM): 0.891
relative viability (LOU-NH91; first compound 15.81 µM): 0.844
relative viability (LOU-NH91; first compound 50 µM): 0.871
relative viability (LOU-NH91; first compound 158.11 µM): 0.837
relative viability (LOU-NH91; first compound 500 µM): 0.622
relative viability (NCI-H1993; first compound 5 µM): 0.569
relative viability (NCI-H1993; first compound 15.81 µM): 0.495
relative viability (NCI-H1993; first compound 50 µM): 0.61
relative viability (NCI-H1993; first compound 158.11 µM): 0.404
relative viability (NCI-H1993; first compound 500 µM): 0.227
relative viability (NCI-H460; first compound 5 µM): 0.698
relative viability (NCI-H460; first compound 15.81 µM): 0.553
relative viability (NCI-H460; first compound 50 µM): 0.718
relative viability (NCI-H460; first compound 158.11 µM): 0.0356
relative viability (NCI-H460; first compound 500 µM): 0.008
relative viability (A-427; first compound 5 µM): 0.884
relative viability (A-427; first compound 15.81 µM): 0.822
relative viability (A-427; first compound 50 µM): 0.827
relative viability (A-427; first compound 158.11 µM): 0.726
relative viability (A-427; first compound 500 µM): 0.492
relative viability (HCC-366; first compound 5 µM): 0.371
relative viability (HCC-366; first compound 15.81 µM): 0.314
relative viability (HCC-366; first compound 50 µM): 0.291
relative viability (HCC-366; first compound 158.11 µM): 0.0721
relative viability (HCC-366; first compound 500 µM): 0.0058
relative viability (HCC-78; first compound 15.81 µM): 0.373
relative viability (HCC-78; first compound 50 µM): 0.361
relative viability (HCC-78; first compound 158.11 µM): 0.393
relative viability (HCC-78; first compound 500 µM): 0.479
relative viability (ChaGo-K-1; first compound 5 µM): 0.737
relative viability (ChaGo-K-1; first compound 15.81 µM): 0.685
relative viability (ChaGo-K-1; first compound 50 µM): 0.744
relative viability (ChaGo-K-1; first compound 158.11 µM): 0.518
relative viability (ChaGo-K-1; first compound 500 µM): 0.301
relative viability (NCI-H1734; first compound 5 µM): 0.66
relative viability (NCI-H1734; first compound 15.81 µM): 0.768
relative viability (NCI-H1734; first compound 50 µM): 0.704
relative viability (NCI-H1734; first compound 158.11 µM): 0.147
relative viability (NCI-H1734; first compound 500 µM): 0.107
relative viability (NCI-H650; first compound 5 µM): 0.447
relative viability (NCI-H650; first compound 15.81 µM): 0.365
relative viability (NCI-H650; first compound 50 µM): 0.301
relative viability (NCI-H650; first compound 158.11 µM): 0.297
relative viability (NCI-H650; first compound 500 µM): 0.414
relative viability (NCI-H1650; first compound 5 µM): 0.521
relative viability (NCI-H1650; first compound 15.81 µM): 0.469
relative viability (NCI-H1650; first compound 50 µM): 0.507
relative viability (NCI-H1650; first compound 158.11 µM): 0.142
relative viability (NCI-H1650; first compound 500 µM): 0.0205
relative viability (HCC-44; first compound 5 µM): 1.01
relative viability (HCC-44; first compound 15.81 µM): 1.11
relative viability (HCC-44; first compound 50 µM): 1.08
relative viability (HCC-44; first compound 158.11 µM): 0.579
relative viability (HCC-44; first compound 500 µM): 0.265
relative viability (NCI-H441; first compound 5 µM): 0.656
relative viability (NCI-H441; first compound 15.81 µM): 0.789
relative viability (NCI-H441; first compound 50 µM): 0.717
relative viability (NCI-H441; first compound 158.11 µM): 0.437
relative viability (NCI-H441; first compound 500 µM): 0.0026
